Experimental data reported in PMC11882969 (Nature Communications, 2025).
Values joined by “and” are separate entries in the source; they are usually repeats but may differ in a detail not shown here. Equal entries are not always repeated.

Legend:
Format in all cases: cell-based
[1] = target: panel of 320 non-olfactory GPCRs (Homo sapiens, UniProt Q86SM5)
[2] = target: panel of 320 non-olfactory GPCRs (Homo sapiens, UniProt Q9NQS5)
[3] = target: panel of 320 non-olfactory GPCRs (Homo sapiens, UniProt P35348)
Sequence of panel of 320 non-olfactory GPCRs (Homo sapiens, UniProt P35348) (P35348 whole entry): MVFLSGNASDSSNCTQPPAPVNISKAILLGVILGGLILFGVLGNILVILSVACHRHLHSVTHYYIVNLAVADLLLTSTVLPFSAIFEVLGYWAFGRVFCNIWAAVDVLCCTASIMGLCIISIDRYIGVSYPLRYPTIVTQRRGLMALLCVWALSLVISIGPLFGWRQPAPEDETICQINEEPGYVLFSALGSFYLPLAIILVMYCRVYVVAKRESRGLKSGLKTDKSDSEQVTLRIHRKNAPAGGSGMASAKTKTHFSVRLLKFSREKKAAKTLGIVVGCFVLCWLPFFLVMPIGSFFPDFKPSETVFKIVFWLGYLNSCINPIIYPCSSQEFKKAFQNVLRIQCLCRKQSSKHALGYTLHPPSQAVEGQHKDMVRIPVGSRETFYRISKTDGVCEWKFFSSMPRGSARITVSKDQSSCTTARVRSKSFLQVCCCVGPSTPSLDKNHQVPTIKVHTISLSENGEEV

[4] = target: panel of 320 non-olfactory GPCRs (Homo sapiens, UniProt P21730)
Sequence of panel of 320 non-olfactory GPCRs (Homo sapiens, UniProt P21730) (P21730 whole entry): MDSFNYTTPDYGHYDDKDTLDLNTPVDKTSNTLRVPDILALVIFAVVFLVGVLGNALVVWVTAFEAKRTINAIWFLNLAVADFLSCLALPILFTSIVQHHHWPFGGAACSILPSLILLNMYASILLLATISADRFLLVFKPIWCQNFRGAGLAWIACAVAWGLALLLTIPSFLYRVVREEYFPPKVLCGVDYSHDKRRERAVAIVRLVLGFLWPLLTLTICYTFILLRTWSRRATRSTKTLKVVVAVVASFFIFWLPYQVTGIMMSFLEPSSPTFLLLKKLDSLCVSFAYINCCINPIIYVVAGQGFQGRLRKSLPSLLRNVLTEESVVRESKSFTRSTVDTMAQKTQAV

[5] = target: panel of 320 non-olfactory GPCRs (Homo sapiens, UniProt Q9UJ42)
Sequence of panel of 320 non-olfactory GPCRs (Homo sapiens, UniProt Q9UJ42) (Q9UJ42 whole entry): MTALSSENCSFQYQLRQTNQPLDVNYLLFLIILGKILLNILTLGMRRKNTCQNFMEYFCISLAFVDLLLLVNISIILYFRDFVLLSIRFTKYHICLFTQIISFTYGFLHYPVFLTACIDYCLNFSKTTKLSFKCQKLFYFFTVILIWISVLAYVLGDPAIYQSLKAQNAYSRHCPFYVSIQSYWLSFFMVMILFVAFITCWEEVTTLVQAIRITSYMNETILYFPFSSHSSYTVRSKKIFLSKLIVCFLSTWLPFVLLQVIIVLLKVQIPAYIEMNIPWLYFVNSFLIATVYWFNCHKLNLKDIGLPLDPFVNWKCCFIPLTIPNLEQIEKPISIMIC

[6] = target: panel of 320 non-olfactory GPCRs (Homo sapiens, UniProt P28223)
[7] = target: panel of 320 non-olfactory GPCRs (Homo sapiens, UniProt Q99527)
[8] = target: panel of 320 non-olfactory GPCRs (Homo sapiens, UniProt Q8IZP9)
[9] = target: panel of 320 non-olfactory GPCRs (Homo sapiens, UniProt P25101)
[10] = target: panel of 320 non-olfactory GPCRs (Homo sapiens, UniProt O00222)
[11] = target: panel of 320 non-olfactory GPCRs (Homo sapiens, UniProt Q01718)
[12] = target: panel of 320 non-olfactory GPCRs (Homo sapiens, UniProt P0DMS8)
[13] = target: panel of 320 non-olfactory GPCRs (Homo sapiens, UniProt O95136)
Sequence of panel of 320 non-olfactory GPCRs (Homo sapiens, UniProt O95136) (O95136 whole entry): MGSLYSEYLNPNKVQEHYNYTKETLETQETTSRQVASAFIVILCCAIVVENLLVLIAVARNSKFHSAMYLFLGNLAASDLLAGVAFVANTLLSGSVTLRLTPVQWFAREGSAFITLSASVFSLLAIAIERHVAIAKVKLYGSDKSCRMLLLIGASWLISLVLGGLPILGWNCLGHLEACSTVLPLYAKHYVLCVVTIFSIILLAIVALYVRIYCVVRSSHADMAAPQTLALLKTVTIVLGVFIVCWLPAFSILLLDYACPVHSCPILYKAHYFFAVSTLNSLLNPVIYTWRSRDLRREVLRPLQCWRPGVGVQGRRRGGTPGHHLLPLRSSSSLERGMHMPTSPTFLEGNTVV

[14] = target: panel of 320 non-olfactory GPCRs (Homo sapiens, UniProt Q6QNK2)
[15] = target: panel of 320 non-olfactory GPCRs (Homo sapiens, UniProt P28335, I156V/I160V)
Sequence of panel of 320 non-olfactory GPCRs (Homo sapiens, UniProt P28335, I156V/I160V) (P28335 33-458 I156V/I160V): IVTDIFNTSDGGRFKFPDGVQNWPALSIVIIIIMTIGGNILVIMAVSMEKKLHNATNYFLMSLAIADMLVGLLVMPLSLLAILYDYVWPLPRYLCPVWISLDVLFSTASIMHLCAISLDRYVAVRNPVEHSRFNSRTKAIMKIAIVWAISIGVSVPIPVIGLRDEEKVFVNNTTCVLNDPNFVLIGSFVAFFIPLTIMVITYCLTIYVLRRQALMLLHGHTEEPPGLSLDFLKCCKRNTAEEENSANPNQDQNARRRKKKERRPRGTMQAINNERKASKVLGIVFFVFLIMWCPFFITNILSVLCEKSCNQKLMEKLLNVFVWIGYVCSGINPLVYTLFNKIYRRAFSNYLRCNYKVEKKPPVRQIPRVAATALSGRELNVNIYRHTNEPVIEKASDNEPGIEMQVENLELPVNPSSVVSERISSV

[16] = target: panel of 320 non-olfactory GPCRs (Homo sapiens, UniProt O15354)
[17] = target: panel of 320 non-olfactory GPCRs (Homo sapiens, UniProt Q15077)
[18] = target: panel of 320 non-olfactory GPCRs (Homo sapiens, UniProt Q96P66)
[19] = target: panel of 320 non-olfactory GPCRs (Homo sapiens, UniProt Q9Y2T6)
[20] = target: panel of 320 non-olfactory GPCRs (Homo sapiens, UniProt O00270)
Sequence of panel of 320 non-olfactory GPCRs (Homo sapiens, UniProt O00270) (O00270 whole entry): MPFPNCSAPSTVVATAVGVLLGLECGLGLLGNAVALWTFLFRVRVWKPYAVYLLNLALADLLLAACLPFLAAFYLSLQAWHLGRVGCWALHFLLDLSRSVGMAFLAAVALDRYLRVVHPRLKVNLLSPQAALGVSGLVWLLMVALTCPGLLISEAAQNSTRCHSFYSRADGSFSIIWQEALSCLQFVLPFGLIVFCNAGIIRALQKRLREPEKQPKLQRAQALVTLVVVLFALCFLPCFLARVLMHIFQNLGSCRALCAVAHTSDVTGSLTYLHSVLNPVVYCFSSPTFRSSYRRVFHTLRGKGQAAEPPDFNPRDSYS

[21] = target: panel of 320 non-olfactory GPCRs (Homo sapiens, UniProt Q9GZQ4)
Sequence of panel of 320 non-olfactory GPCRs (Homo sapiens, UniProt Q9GZQ4) (Q9GZQ4 whole entry): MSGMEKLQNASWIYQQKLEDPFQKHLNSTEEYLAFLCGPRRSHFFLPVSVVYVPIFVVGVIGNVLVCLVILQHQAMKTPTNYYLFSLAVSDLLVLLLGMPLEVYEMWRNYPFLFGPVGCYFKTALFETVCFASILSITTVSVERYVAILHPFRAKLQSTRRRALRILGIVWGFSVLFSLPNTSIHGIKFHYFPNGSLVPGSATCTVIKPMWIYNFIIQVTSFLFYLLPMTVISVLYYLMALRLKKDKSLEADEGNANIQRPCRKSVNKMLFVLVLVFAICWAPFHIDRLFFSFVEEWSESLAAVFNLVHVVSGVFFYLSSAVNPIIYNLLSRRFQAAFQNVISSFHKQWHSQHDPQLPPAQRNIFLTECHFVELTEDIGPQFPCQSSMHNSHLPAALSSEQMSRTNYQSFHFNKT

[22] = target: panel of 320 non-olfactory GPCRs (Homo sapiens, UniProt P55085)
[23] = target: panel of 320 non-olfactory GPCRs (Homo sapiens, UniProt O43194)
[24] = target: panel of 320 non-olfactory GPCRs (Homo sapiens, UniProt Q92847)
[25] = target: panel of 320 non-olfactory GPCRs (Homo sapiens, UniProt P30874)
[26] = target: panel of 320 non-olfactory GPCRs (Homo sapiens, UniProt Q9Y5Y4)
[27] = target: panel of 320 non-olfactory GPCRs (Homo sapiens, UniProt P30556)
[28] = target: panel of 320 non-olfactory GPCRs (Homo sapiens, UniProt Q96P68)
[29] = target: panel of 320 non-olfactory GPCRs (Homo sapiens, UniProt Q15743)
Sequence of panel of 320 non-olfactory GPCRs (Homo sapiens, UniProt Q15743) (Q15743 whole entry): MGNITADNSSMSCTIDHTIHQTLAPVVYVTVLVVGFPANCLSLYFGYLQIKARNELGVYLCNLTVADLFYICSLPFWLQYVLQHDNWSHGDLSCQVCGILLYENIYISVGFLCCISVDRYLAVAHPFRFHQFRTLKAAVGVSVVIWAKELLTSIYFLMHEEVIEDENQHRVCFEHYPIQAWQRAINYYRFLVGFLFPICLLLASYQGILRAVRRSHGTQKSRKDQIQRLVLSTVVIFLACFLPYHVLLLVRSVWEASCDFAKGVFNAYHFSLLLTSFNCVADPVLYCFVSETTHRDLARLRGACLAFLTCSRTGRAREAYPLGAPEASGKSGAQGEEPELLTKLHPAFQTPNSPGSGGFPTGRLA

[30] = target: panel of 320 non-olfactory GPCRs (Homo sapiens, UniProt Q13304)
[31] = target: panel of 320 non-olfactory GPCRs (Homo sapiens, UniProt Q16602)
[32] = target: panel of 320 non-olfactory GPCRs (Homo sapiens, UniProt P35367)
Sequence of panel of 320 non-olfactory GPCRs (Homo sapiens, UniProt P35367) (P35367 whole entry): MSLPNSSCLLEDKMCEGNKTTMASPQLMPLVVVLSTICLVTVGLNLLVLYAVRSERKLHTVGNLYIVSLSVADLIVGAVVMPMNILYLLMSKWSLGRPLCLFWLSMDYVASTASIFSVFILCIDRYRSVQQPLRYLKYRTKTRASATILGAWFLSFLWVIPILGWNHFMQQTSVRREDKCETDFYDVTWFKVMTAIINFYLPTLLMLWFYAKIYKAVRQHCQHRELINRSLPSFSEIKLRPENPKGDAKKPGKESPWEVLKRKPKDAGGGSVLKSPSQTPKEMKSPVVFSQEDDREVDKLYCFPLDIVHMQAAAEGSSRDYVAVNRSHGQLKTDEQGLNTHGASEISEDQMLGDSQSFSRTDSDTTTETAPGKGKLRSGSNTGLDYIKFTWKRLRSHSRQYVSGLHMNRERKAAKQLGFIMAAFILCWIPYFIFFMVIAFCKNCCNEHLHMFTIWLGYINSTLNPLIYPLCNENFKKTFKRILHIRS

[33] = target: panel of 320 non-olfactory GPCRs (Homo sapiens, UniProt P29275)
[34] = target: panel of 320 non-olfactory GPCRs (Homo sapiens, UniProt Q8TDT2)
Sequence of panel of 320 non-olfactory GPCRs (Homo sapiens, UniProt Q8TDT2) (Q8TDT2 whole entry): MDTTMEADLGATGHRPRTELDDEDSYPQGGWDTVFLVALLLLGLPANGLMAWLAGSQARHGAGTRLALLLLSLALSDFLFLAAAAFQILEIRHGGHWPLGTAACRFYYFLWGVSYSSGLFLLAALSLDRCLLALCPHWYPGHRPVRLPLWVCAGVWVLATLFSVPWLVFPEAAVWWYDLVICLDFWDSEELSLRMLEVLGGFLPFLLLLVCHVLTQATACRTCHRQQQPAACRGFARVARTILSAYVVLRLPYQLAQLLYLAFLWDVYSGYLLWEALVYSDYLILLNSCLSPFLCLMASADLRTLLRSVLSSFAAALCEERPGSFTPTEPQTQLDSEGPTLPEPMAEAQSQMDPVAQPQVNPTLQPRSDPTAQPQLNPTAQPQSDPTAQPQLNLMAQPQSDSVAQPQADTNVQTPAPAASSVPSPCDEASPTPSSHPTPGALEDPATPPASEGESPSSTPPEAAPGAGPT

[35] = target: panel of 320 non-olfactory GPCRs (Homo sapiens, UniProt Q92633)
[36] = target: panel of 320 non-olfactory GPCRs (Homo sapiens, UniProt Q9NPC1)
[37] = target: panel of 320 non-olfactory GPCRs (Homo sapiens, UniProt P25116)
Sequence of panel of 320 non-olfactory GPCRs (Homo sapiens, UniProt P25116) (P25116 22-425): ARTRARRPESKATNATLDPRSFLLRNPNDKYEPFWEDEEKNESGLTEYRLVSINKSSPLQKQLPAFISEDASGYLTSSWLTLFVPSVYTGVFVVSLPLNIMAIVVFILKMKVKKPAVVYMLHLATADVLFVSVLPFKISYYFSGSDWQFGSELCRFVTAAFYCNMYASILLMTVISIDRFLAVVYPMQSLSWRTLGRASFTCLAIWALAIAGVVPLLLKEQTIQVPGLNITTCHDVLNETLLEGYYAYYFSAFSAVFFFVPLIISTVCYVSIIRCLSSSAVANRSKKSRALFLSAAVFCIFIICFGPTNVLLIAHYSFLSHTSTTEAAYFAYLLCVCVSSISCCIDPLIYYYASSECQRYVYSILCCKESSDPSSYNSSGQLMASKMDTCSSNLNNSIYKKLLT

Sequence of panel of 320 non-olfactory GPCRs (Homo sapiens, UniProt Q86SM5) (Q86SM5 whole entry): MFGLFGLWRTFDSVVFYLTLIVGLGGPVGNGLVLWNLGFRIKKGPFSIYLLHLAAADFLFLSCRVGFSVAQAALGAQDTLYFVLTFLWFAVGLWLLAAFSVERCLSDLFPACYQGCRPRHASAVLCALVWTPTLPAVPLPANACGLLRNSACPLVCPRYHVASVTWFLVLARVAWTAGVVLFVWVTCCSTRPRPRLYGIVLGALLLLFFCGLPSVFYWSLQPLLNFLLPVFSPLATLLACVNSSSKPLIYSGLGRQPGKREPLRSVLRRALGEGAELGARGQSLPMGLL

SMILES	Fold of Basal RLU [1]	Fold of Basal RLU [2]	Fold of Basal RLU [3]	Fold of Basal RLU [4]	Fold of Basal RLU [5]	Fold of Basal RLU [6]	Fold of Basal RLU [7]	Fold of Basal RLU [8]	Fold of Basal RLU [9]	Fold of Basal RLU [10]	Fold of Basal RLU [11]	Fold of Basal RLU [12]	Fold of Basal RLU [13]	Fold of Basal RLU [14]	Fold of Basal RLU [15]	Fold of Basal RLU [16]	Fold of Basal RLU [17]	Fold of Basal RLU [18]	Fold of Basal RLU [19]	Fold of Basal RLU [20]	other results
COC(=O)[C@@](C)(NC(=O)c1cc(C)n(-c2cccc(C(F)(F)F)c2)n1)c1cccs1 [‘1350]	0.7 fold and 0.8 fold	1 fold and 1.1 fold and 1.2 fold and 1.4 fold	1.1 and 0.9 and 1.3	1.1 fold and 0.9 fold and 1.2 fold and 1 fold	0.7 fold and 1.1 fold and 1 fold	0.9 fold and 0.8 fold	1.2 and 1.1 and 0.9	1.1 fold and 1.2 fold and 0.9 fold and 0.7 fold	1.1 fold and 0.9 fold and 0.8 fold	0.7 and 0.9 and 1.2 and 1.4	1 and 1.3 and 0.7	1 fold and 0.9 fold and 1.2 fold	1.3 fold and 0.9 fold and 1.2 fold and 1 fold	0.7 fold and 0.9 fold and 1 fold and 1.1 fold	0.4 and 0.8	1 fold and 0.8 fold and 0.9 fold and 1.3 fold	1.4 fold and 1.2 fold and 1.1 fold	1.1 fold and 0.8 fold and 0.9 fold	1.4 fold and 1.3 fold and 1.5 fold	1.1 fold and 1.4 fold and 1.2 fold and 1.6 fold	Fold of Basal RLU [21]: 0.7 fold and 0.9 fold and 0.8 fold; Fold of Basal RLU [22]: 0.8 and 1.2; Fold of Basal RLU [23]: 0.7 and 0.8 and 1; Fold of Basal RLU [24]: 1.4 fold and 1.8 fold and 1.6 fold; Fold of Basal RLU [25]: 0.7 and 0.8 and 0.6; Fold of Basal RLU [26]: 1.1 fold and 1.4 fold and 1.5 fold; Fold of Basal RLU [27]: 1.1 and 1.3 and 1.2; Fold of Basal RLU [28]: 1.1 fold and 1.3 fold and 1.6 fold; Fold of Basal RLU [29]: 0.9 fold and 1 fold; Fold of Basal RLU [30]: 1 fold and 1.2 fold and 0.8 fold and 1.1 fold; Fold of Basal RLU [31]: 0.4 and 0.7 and 0.6; Fold of Basal RLU [32]: 0.9 fold and 1 fold and 1.1 fold; Fold of Basal RLU [33]: 0.6 and 0.7 and 1.1; Fold of Basal RLU [34]: 1.2 fold and 1.1 fold and 0.8 fold and 1.5 fold; Fold of Basal RLU [35]: 1.3 fold and 1 fold and 1.2 fold; Fold of Basal RLU [36]: 0.8 fold and 1 fold and 0.6 fold and 0.7 fold; Fold of Basal RLU [37]: 1 fold and 1.1 fold and 1.3 fold
Cc1cc(C(=O)NC(C)(c2ccco2)c2ccco2)nn1-c1cccc(C(F)(F)F)c1 [‘4936]	1.1 fold and 1 fold	1 fold and 0.9 fold and 1.6 fold	0.6 and 0.7 and 1.1	0.8 fold and 0.7 fold	0.8 fold and 1.1 fold and 0.9 fold	1.2 fold and 1 fold and 1.4 fold	1.9 and 1.3 and 1.5 and 1.4	0.8 fold and 0.6 fold and 1 fold	0.9 fold and 0.8 fold and 0.6 fold	0.3 and 0.6 and 0.4 and 0.5	1.4 and 1.2 and 1	0.7 fold and 1.1 fold	0.9 fold and 1.1 fold and 1.2 fold and 1 fold	0.9 fold	0.7 and 0.4 and 0.8	1 fold and 1.1 fold and 1.2 fold	1.2 fold and 1.3 fold	1.2 fold and 1.3 fold	1.1 fold and 1.7 fold and 1.4 fold	1.4 fold and 1.2 fold and 1.7 fold and 2.2 fold	Fold of Basal RLU [21]: 0.9 fold and 0.8 fold and 0.7 fold; Fold of Basal RLU [22]: 0.9 and 1.3 and 1.1; Fold of Basal RLU [23]: 0.9 and 0.7 and 0.5; Fold of Basal RLU [24]: 1.3 fold and 2.2 fold and 1.6 fold; Fold of Basal RLU [25]: 0.7 and 1; Fold of Basal RLU [26]: 2.3 fold and 1.8 fold and 1.6 fold and 1.5 fold; Fold of Basal RLU [27]: 1.7 and 1.2 and 1.4 and 1.8; Fold of Basal RLU [28]: 1.3 fold and 1.5 fold and 2.1 fold; Fold of Basal RLU [29]: 0.6 fold and 0.9 fold and 1 fold; Fold of Basal RLU [30]: 1.6 fold and 1.4 fold and 1.1 fold; Fold of Basal RLU [31]: 1 and 0.6 and 0.5; Fold of Basal RLU [32]: 0.9 fold and 1.1 fold and 1.2 fold and 1.5 fold; Fold of Basal RLU [33]: 0.9 and 0.7 and 1 and 0.6; Fold of Basal RLU [34]: 1.1 fold and 0.9 fold and 1 fold; Fold of Basal RLU [35]: 1.1 fold and 1 fold and 0.9 fold; Fold of Basal RLU [36]: 0.6 fold and 0.8 fold and 0.7 fold and 0.9 fold; Fold of Basal RLU [37]: 1.4 fold and 1.3 fold and 1.1 fold
